This note sets out measurements from patent US8895585B2, “Nicotinamide derivative or salt thereof” (FUJIFILM Corporation, priority 2010, dated 2014).

In this experiment the target is T1, glutathione S-transferase (GST)-fused full-length human Syk protein (Homo sapiens, UniProt P43405).
T1 construct: (GST)-fused full-length human Syk protein; GST (glutathione S-transferase); purchased Carna Biosciences
The experiment can be described thus: Syk enzyme assay. The experiment is classed as biochemical. In outline: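 GST-tagged full-length human Syk (baculovirus) preincubated with compound 15 min at room temperature (pH 7.0, 10 mM MgCl2), then reacted 40 min with 0.4 μM biotinylated peptide substrate and 27 μM ATP (final). Phosphorylation read by HTRF (615/665 nm) after EDTA stop; IC50 reported.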

Setting [1] is: Syk enzyme assay, Test Example 1, read-out: IC50 of Syk-inhibitory activity.
Setting [2] is: read-out: Syk-inhibitory activity (IC50).

SMILES strings stand for the structures. Where two headings read alike, the source gives them in different places.

Turning to `C[C@H](N)[C@@H](CC1CC1)Nc1nc(Nc2ccc3nccnc3c2)c(C(N)=O)cc1F` [Example 006-347, 6-(((2R,3S)-3-amino-1-cyclopropylbutan-2-yl)amino)-5-fluoro-2-((quinoxalin-6-yl)amino)nicotinamide], under setting [1], the IC50 was in the range of 10 to 50 nM.

Regarding `CNC(=O)c1cc(Nc2nc(NC3CCCC[C@@H]3N)c(F)cc2C(N)=O)ccn1` (some centres unmarked) [Example 029-013], the IC50 under setting [1] lay in the range of 10 to 50 nM.

Take `NC(=O)c1cc(F)c(N[C@@H]2CCCC[C@@H]2N)nc1Nc1ccc(Nc2ccccc2)nc1` (relative stereo) [Example 006-164, 6-((cis-2-aminocyclohexyl)amino)-5-fluoro-2-((6-(phenylamino)pyridin-3-yl)amino)nicotinamide]: the concentration for half-maximal inhibition (IC50) under setting [1] lay within 10 to 50 nM.

For the compound `NC(=O)c1cc(F)c(NC2CCCCC2N)nc1Nc1ccc(N2CCOCC2=O)nc1` (centres unmarked) [Example 002-162], under setting [1], the 50% inhibitory concentration (IC50) fell in the range of 100 to 1000 nM.

Regarding `Cn1cc(Nc2nc(N[C@@H]3CCCC[C@@H]3N)c(F)cc2C(N)=O)cc(-n2ccnn2)c1=O` (relative stereo) [Example 006-428, 6-((cis-2-aminocyclohexyl)amino)-5-fluoro-2-((1-methyl-6-oxo-5-(1H-1,2,3-triazol-1-yl)-1,6-dihydropyridin-3-yl)amino)nicotinamide], the IC50 under setting [1] lay within 50 to 100 nM.

In the case of `COCCOCCOc1cnc2cc(Nc3nc(N[C@@H]4CCCC[C@@H]4N)c(F)cc3C(N)=O)ccc2n1` (relative stereo) [Example 004-179, 6-(cis-2-aminocyclohexylamino)-5-fluoro-2-((2-(2-(2-methoxyethoxy)ethoxy)quinoxalin-6-yl)amino)nicotinamide], the IC50 under setting [1] was less than 10 nM.

Regarding `NC(=O)c1cc(F)c(N[C@@H]2CCCC[C@@H]2N)nc1Nc1cnc(N2CCOCC2)c(F)c1` (relative stereo) [Example 004-216, 6-(cis-2-aminocyclohexylamino)-5-fluoro-2-((5-fluoro-6-morpholinopyridin-3-yl)amino)nicotinamide], under setting [1], the 50% inhibitory concentration (IC50) was 10 to 50 nM.

For the compound `COCCOc1ccccc1-c1cncc(Nc2nc(N[C@@H]3CCCC[C@@H]3N)c(F)cc2C(N)=O)c1` (relative stereo) [Example 004-185, 6-(cis-2-aminocyclohexylamino)-5-fluoro-2-((5-(2-(2-methoxyethoxy)phenyl)pyridin-3-yl)amino)nicotinamide], the 50% inhibitory concentration (IC50) under setting [1] is less than 10 nM.

Take `NC(=O)c1cc(F)c(NC2CCCCC2N)nc1Nc1ccc2nc(OCC3CCCO3)ccc2c1` (centres unmarked) [Example 002-112]: under setting [1], the IC50 was less than 10 nM.

Turning to `NC(=O)c1cc(F)c(NC2CCCCC2N)nc1Nc1cnc2ccccc2c1` (centres unmarked) [Example 008-004], the half-inhibitory concentration (IC50) under setting [1] is less than 10 nM.

Regarding `Cn1nnc2cc(C(=O)Nc3cncc(Nc4nc(N[C@@H]5CCCC[C@@H]5N)c(F)cc4C(N)=O)c3)ccc21` (relative stereo) [Example 027-042, N-(5-(6-(cis-2-aminocyclohexylamino)-3-carbamoyl-5-fluoropyridin-2-yl)aminopyridin-3-yl)-1-methyl-1H-benzo[d][1,2,3]triazol-5-carboxamide], the 50% inhibitory concentration (IC50) under setting [1] was less than 10 nM.

As for `CCC(C)COc1ccc2cc(Nc3nc(NC4CCCCC4N)c(F)cc3C(N)=O)ccc2n1` (centres unmarked) [Example 002-106], the half-inhibitory concentration (IC50) under setting [1] fell in the range of 50 to 100 nM.

Consider `NC(=O)c1cc(F)c(N[C@@H]2CCCC[C@@H]2N)nc1Nc1cncc(C(=O)O)c1` (relative stereo) [Example 29-1, 5-((3-aminocarbonyl-6-(cis-2-aminocyclohexylamino)-5-fluoropyridin-2-yl)amino)nicotinic acid], for which the IC50 under setting [2] is not above 1000 nM.

Take `COc1cc(Nc2nc(NC(C(N)=O)C(C)C)c(F)cc2C(N)=O)cc(OC)c1` (centres unmarked) [Example 32, 6-(1-aminocarbonyl-2-methylpropylamino)-2-(3,5-dimethoxyphenylamino)-5-fluoro nicotinamide]: the IC50 under setting [2] is not above 1000 nM.

On to `NC(=O)c1cc(Nc2nc(N[C@@H]3CCCC[C@@H]3N)c(F)cc2C(N)=O)ccn1` (relative stereo) [Example 29-12, 4-((3-aminocarbonyl-6-(cis-2-aminocyclohexylamino)-5-fluoropyridin-2-yl)amino)pyridin-2-carboxamide], for which the concentration for half-maximal inhibition (IC50) under setting [2] was not above 1000 nM.

For the compound `NCCNc1nc(Nc2cc(Cl)cc(Cl)c2)c(C(N)=O)cc1F` [Example 006-007, 6-((2-aminoethyl)amino)-2-((3,5-dichlorophenyl)amino)-5-fluoro-nicotinamide], under setting [1], the IC50 lay within 50 to 100 nM.

As for `NC(=O)c1cc(F)c(N[C@@H]2CCCC[C@@H]2N)nc1Nc1ccc2cn[nH]c2c1` (relative stereo) [Example 006-086, 6-(cis-2-aminocyclohexylamino)-5-fluoro-2-((1H-indazol-6-yl)amino)nicotinamide], the IC50 under setting [1] is less than 10 nM.

With `Cc1cc(Nc2nc(N[C@@H]3CCCC[C@@H]3N)c(F)cc2C(N)=O)cs1` (relative stereo) [Example 004-057], under setting [1], the IC50 was less than 10 nM.

Consider `C[C@H](N)[C@H](Nc1nc(Nc2cnc3c(c2)OCO3)c(C(N)=O)cc1F)C1CC1` [Example 006-514, 2-([1,3]dioxolo[4,5-b]pyridin-6-ylamino)-6-(((1R,2S)-2-amino-1-cyclopropylpropyl)amino)-5-fluoronicotinamide], for which the IC50 under setting [1] was 50 to 100 nM.

With `COc1ccc(Nc2nc(N[C@@H]3CCCC[C@@H]3N)c(F)cc2C(N)=O)c2cccnc12` (relative stereo) [Example 6-67, 6-(cis-2-aminocyclohexylamino)-5-fluoro-2-((8-methoxyquinolin-5-yl)amino)nicotinamide], the IC50 under setting [2] is not above 1000 nM.

For the compound `NC(=O)c1cc(F)c(NC2CCCCC2N)nc1Nc1ccc(OCCO)nc1` (centres unmarked) [Example 002-079], the half-inhibitory concentration (IC50) under setting [1] was in the range of 50 to 100 nM.

For `COc1ccc(Nc2nc(N[C@@H]3CCCC[C@@H]3N)c(F)cc2C(N)=O)cn1` (relative stereo) [Example 2-10, 6-(cis-2-aminocyclohexylamino)-5-fluoro-2-((6-methoxypyridin-3-yl)amino)nicotinamide], the IC50 under setting [2] is not above 1000 nM.

For the compound `NC(=O)c1cc(F)c(NC2CCCCC2N)nc1Nc1ccc2c(cnn2Cc2ccccc2)c1` (centres unmarked) [Example 002-036], under setting [1], the half-maximal inhibitory concentration (IC50) lay within 50 to 100 nM.

On to `NC(=O)c1cc(F)c(NC2CCCCC2N)nc1Nc1cncc(NC(=O)c2ccc(F)cc2F)c1` (centres unmarked) [Example 027-029], for which, under setting [1], the IC50 lay in the range of 10 to 50 nM.

As to `CCNc1nc(Nc2cc(OC)cc(OC)c2)c(C(N)=O)cc1F` [Example 016-001], under setting [1], the half-inhibitory concentration (IC50) fell in the range of 100 to 1000 nM.

For the compound `COc1cc(Nc2nc(N3CCNC(=O)C3)c(F)cc2C(N)=O)cc(OC)c1` [Example 016-024], the IC50 under setting [1] was in the range of 100 to 1000 nM.

On to `NC(=O)c1cc(F)c(N[C@@H]2CCCC[C@@H]2N)nc1Nc1cnc(N2CCOCC2)c(C2CC2)c1` [Example 006-528, 6-(((1R,2S)-2-aminocyclohexyl)amino)-2-((5-cyclopropyl-6-morpholinopyridin-3-yl)amino)-5-fluoronicotinamide], for which the 50% inhibitory concentration (IC50) under setting [1] was 10 to 50 nM.

Take `CC(C)C[C@H](CN)Nc1nc(Nc2cncc(-c3ccccc3)c2)c(C(N)=O)cc1F` [Example 006-235, (R)-6-((1-amino-4-methylpentan-2-yl)amino)-5-fluoro-2-((5-phenylpyridin-3-yl)amino)nicotinamide]: under setting [1], the 50% inhibitory concentration (IC50) lay within 10 to 50 nM.

With `COc1ncc(Nc2nc(N[C@H](CC3CC3)[C@H](C)N)c(F)cc2C(N)=O)cc1-n1nccn1` [Example 006-393, 6-(((2R,3S)-3-amino-1-cyclopropylbutan-2-yl)amino)-5-fluoro-2-((6-methoxy-5-(2H-1,2,3-triazol-2-yl)pyridin-3-yl)amino)nicotinamide], the IC50 under setting [1] is 10 to 50 nM.

With `COCC(C)Oc1ncc(Nc2nc(N[C@@H]3CCCC[C@@H]3N)c(F)cc2C(N)=O)c2ccccc12` (relative stereo) [Example 004-154, 6-(cis-2-aminocyclohexylamino)-5-fluoro-2-((1-((1-methoxypropan-2-yl)oxy)isoquinolin-4-yl)amino)nicotinamide], the IC50 under setting [1] was in the range of 100 to 1000 nM.

In the case of `C[C@H](N)[C@@H](CC1CC1)Nc1nc(Nc2cccc3c2c(F)nn3CCF)c(C(N)=O)cc1F` [Example 006-491, 6-(((2R,3S)-3-amino-1-cyclopropylbutan-2-yl)amino)-5-fluoro-2-((3-fluoro-1-(2-fluoroethyl)-1H-indazol-4-yl)amino)nicotinamide], under setting [1], the half-inhibitory concentration (IC50) lay in the range of 10 to 50 nM.

Consider `CC(C)C[C@@H](Nc1nc(Nc2ccc3c(c2)c(-n2cccn2)nn3C)c(C(N)=O)cc1F)[C@H](C)N` [Example 006-595, 6-(((2S,3R)-2-amino-5-methylhexan-3-yl)amino)-5-fluoro-2-((1-methyl-3-(1H-pyrazol-1-yl)-1H-indazol-5-yl)amino)nicotinamide], for which the IC50 under setting [1] was less than 10 nM.

For `Cn1nc(N2CCOCC2)c2cc(Nc3nc(N[C@@H]4CCCC[C@@H]4N)c(F)cc3C(N)=O)ccc21` [Example 006-560, 6-(((1R,2S)-2-aminocyclohexyl)amino)-5-fluoro-2-((1-methyl-3-morpholino-1H-indazol-5-yl)amino)nicotinamide], the 50% inhibitory concentration (IC50) under setting [1] was in the range of 10 to 50 nM.

As for `Cc1ccc(S(=O)(=O)Nc2cccc3cc(Nc4nc(NC5CCCC[C@@H]5N)c(F)cc4C(N)=O)cnc23)cc1` (stereo partly drawn) [Example 41-4, 6-(cis-2-aminocyclohexylamino)-5-fluoro-2-((8-(4-methylphenylsulphonamide)quinolin-3-yl)amino)nicotinamide], the 50% inhibitory concentration (IC50) under setting [1] lay in the range of 50 to 100 nM.

Regarding `CCCCOCCOCCOc1ccc2cc(Nc3nc(NC4CCCCC4N)c(F)cc3C(N)=O)ccc2n1` (centres unmarked) [Example 002-111], the half-inhibitory concentration (IC50) under setting [1] lay in the range of 10 to 50 nM.

As for `CNC(=O)c1cc(Nc2nc(N[C@@H]3CCCC[C@@H]3N)c(F)cc2C(N)=O)ccn1` (relative stereo) [Example 29-13, 4-((3-aminocarbonyl-6-(cis-2-aminocyclohexylamino)-5-fluoropyridin-2-yl)amino)-N-methylpyridin-2-carboxamide], the 50% inhibitory concentration (IC50) under setting [2] is not above 1000 nM.

For `NC(=O)c1cc(F)c(N[C@H](Cc2ccccc2)C(N)=O)nc1Nc1ccnc2c1ccn2CCN1CCOCC1` [Example 004-045], the IC50 under setting [1] lay in the range of 10 to 50 nM.

Take `NC(=O)c1cc(F)c(NC2CCCCC2N)nc1Nc1cccc2c1cnn2CCN1CCCC1` (centres unmarked) [Example 002-026]: the IC50 under setting [1] is less than 10 nM.

The IC50 is the point on the concentration scale where inhibition reaches its midpoint.
